The text below walks through data of patent publication US7445891B2, “Nucleic acid triggered catalytic drug and probe release” (priority 2001, dated 2008).

One series deals with imidazole hairpin 3a. Briefly: Fluorescein release from fluorescein dipivalate ODNs by imidazole hairpin. It counts as biochemical. As to conditions: 10 mM ODN, 5 mM hairpin 3a, 0.1 M phosphate pH 7.0, 20° C.; relative to 7a. An excerpt: FIG. 11. […] For comparison, the release of fluorescein from the fluorescein tetramer 7aby imidazole at 0.1 M imidazole alone is also shown.
Because of the strong fluorescence and widespread use of fluorescein as a fluorescent probe, the rate of fluorescein release by imidazole catalyzed hydrolysis of diacetyl fluorescein was investigated. Diacetylated fluoresceins are non-fluorescent, but upon hydrolysis of the acyl groups become highly fluorescent. Attempts to attach the N-hydroxysuccinimide derivative of diacetylcarboxyfluorescein via amide bond formation with the 3′-amino linked oligodeoxynucleotide 5 (FIG. 4) failed due to the high pH required for the reaction which led to the premature hydrolysis of the acetate groups. Attempts to conjugate 5-chloromethyl fluorescein diacetate with a 3′-phosphorothioate labeled ODN also failed at pH 7. […] The TMs of 7a-cwere estimated from thermodynamic parameters to be -20, 19, and 41° C. under the conditions of the experiment and have equilibrium dissociation constants of 3.4 mM, 8.1 mM, and 14 nM.

Another series concerns E. coil 5S rRNA. Briefly: Hydroxycoumarin release from PNA constructs on 5S rRNA trigger. In kind it is biochemical, E. coli. As to conditions: unoptimized test. The source says: FIG. 16. A series of PNA constructs was synthesized to target one of the hairpin loops of commercially available E. coil 5S rRNA (SEQ ID NO:11) as the nucleic acid trigger. This rRNA has been thoroughly characterized by enzymatic and chemical probes, and is therefore a suitable initial model for studying and optimizing various catalytic drug releasing motifs in folded […].
FIG. 19. […] In contrast, there was no difference in the rate of release of hydroxycoumarin from the 6-mer conjugate in the presence or absence of the histidine, or the catalytic component. (not shown).

The next series deals with hairpin enzyme 3a. Briefly: Two component hairpin system: p-nitrophenolate / 7-hydroxycoumarin release from 8-mer prodrugs. It counts as biochemical. Particulars: for Enhancement: (kcat/KM)/kIm. The method, then:
Initial velocities of the reaction, obtained for each substrate concentration, were fitted to the Michaelis-Menten equation by a non-linear least squares method using KaleidaGraph software. The inhibition constant KI was determined in the presence of 25 mM 7d ([…]) in 10 mM sodium phosphate buffer pH 7.0 containing 1.0 M NaCl by the plotting 1/v vs. 1/[S] and calculating KI from the slope of the line according following equation:
(§1) [formula] where v is the velocity of the reaction, Vmax is the maximum velocity, KM is the substrate concentration at half maximal reaction rate, [I] is the inhibitor concentration, and [S] is the substrate concentration. Kinetics of p-nitrophenol and 7-hydroxycoumarin Release by Imidazole Alone

Series [1] concerns 15-mer catalytic component 3b and 23-mer template 4. Briefly: Three component system: release from 8-mer prodrug with imidazole 15-mer and triggering 23-mer. It counts as biochemical. How it is done: For typical assays, pNP-8-mer 1 (SEQ ID NO:1) and Im-15-mer 2 were incubated in 10 mM sodium phosphate, pH 7.0, which contained 0.1 M or 1.0 M NaCl in an ultra-micro ([…]) UV cell (Varian). The reaction temperature was maintained at 20° C., and the production of p-nitrophenolate was monitored by UV absorbance at 400 nm (e400=6.26′10^3). Initial velocities of the reaction, obtained for each substrate concentration, were fitted to the Michaelis-Menten equation by a non-linear least squares method with KaleidaGraph software. The inhibition constant KI was determined in the presence of 20 mM d([…]) in 10 mM sodium phosphate buffer pH 7.0 containing 1.0 M NaCl by the plotting 1/v vs. 1/[S] and calculating KI from the slope of the line according following equation:
[formula] where v is the velocity of the reaction, Vmax is the maximum velocity, KM is the substrate concentration at half maximal reaction rate, [I] is the inhibitor concentration, and [S] is the substrate concentration. For comparison purposes, the reaction rate constant kIm for the imidazole catalyzed hydrolysis of N-maleoyl-D-valine p-nitrophenyl ester 8 was determined in imidazole buffer at pH 7.0, 1.0 M NaCl at 20° C. as previously described. […]
as §1

The nature of series [2]: Imidazole catalyzed hydrolysis of esters (imidazole alone). In kind it is physicochemical. As to conditions: 20° C.
Method: For comparison purposes, the rate constant kIm for the imidazole catalyzed hydrolysis of the various esters were determined in imidazole buffer at pH 7.0, 0.5 M NaCl at 20° C. as previously described. The imidazole buffers were prepared in 0.5 M NaCl, and adjusted to pH 7 by addition of 1 M HCl. […] The pseudo first-order rate constant for each concentration of imidazole was obtained by linear least squares fitting of In(A¥-A) or In(F¥-F) vs. time. The rate constants were then plotted against total imidazole concentration to get ko, the first order rate constant for the uncatalyzed hydrolysis reaction, and kIm, the second-order rate constant for catalysis by imidazole buffer.
The nature of series [3]: Hydrolysis of esters in human serum.
Method: In a typical run, 3 mL of coumarin ester solution (7 mM in acetonitrile) was added to 400 mL of Human serum, pH 8.3 (Innovative Research Inc.) in cuvette. The cuvette was capped, inverted several times for thorough mixing, placed in a cell block and recording was begun.
The conditions of series [4]: 1 M NaCl; cited from earlier work.

Take “7a: 4-mer ODN derivatized with bis-pivaloyl fluorescein (SEQ ID NO:7) (GTCA; DNA, backbone not given here; further chemistry not fully specified)”: the “relative initial rates of fluorescein release” value with imidazole hairpin 3a stood at 1.

For “7c: 8-mer ODN derivatized with bis-pivaloyl fluorescein (SEQ ID NO:9) (TCCTGTCA; DNA, backbone not given here; further chemistry not fully specified)”, the “relative initial rates of fluorescein release” value in the series on imidazole hairpin 3a is on record as 493.

As for “8-mer PNA construct: hydroxycoumarin-bearing 8-mer PNA (SEQ ID NO:15) targeting E. coli 5S rRNA hairpin loop (CTGGGGTA; all peptide nucleic acid (PNA); hydroxycoumarin attached, position not given here)”, in the series on E. coil 5S rRNA, the “rate of hydroxycoumarin release, all three components vs absence of the entire catalytic PNA” value was found to be 4 fold and the “rate of hydroxycoumarin release, all three components vs all three minus the histidine” value is 2 fold.

On to “15a (SEQ ID NO:10) (X=C): mismatched b-alanine p-nitrophenyl ester 8-mer prodrug, G to C transversion (DNA TCCTNTCA; b-alanine p-nitrophenyl ester prodrug, chemistry not fully specified)”, for which, in the series on hairpin enzyme 3a (1 M NaCl), the “difference in initial rates of p-nitrophenolate release, matched 15a (X=G) vs single CC mismatch” value is reported as 11 fold. The “increase in Kd of mismatch substrate needed to account for rate difference” value with hairpin enzyme 3a (rates proportional to (Kd+[S])^−1) was 15 fold.

In general, kcat refers to the number of substrate molecules converted per active site and unit of time at saturation. In the case of “15a (X = G): matched b-alanine p-nitrophenyl ester 8-mer ODN prodrug (SEQ ID NO:10) (TCCTNTCA; beta-alanine p-nitrophenyl ester prodrug, chemistry not fully specified)”, the “time in which four turnovers are complete” value with hairpin enzyme 3a (20 mM prodrug, 5 mM hairpin 3a, 1 M NaCl, pH 7, 20° C.) is listed as “about 4 h”. For the same molecule, the kcat with hairpin enzyme 3a (1.0 M NaCl, 10 mM phosphate buffer pH 7.0, 20° C., listed as 15a) is 0.0029 s⁻¹. Moreover, the Enhancement in the series on hairpin enzyme 3a (0.1 M NaCl) was 281; with hairpin enzyme 3a (1.0 M NaCl), 446. Also, the “koff needed to account for observed KM” value with hairpin enzyme 3a (assuming on rate 10^6 M^−1s^−1) was 50 s⁻¹. Besides, the “rate enhancement of ester hydrolysis relative to imidazole alone” value with hairpin enzyme 3a (kcat/KM compared with kIm) worked out at 446 fold.

For orientation: Vmax means the rate approached at saturating substrate. As to “16a: D-valine p-nitrophenyl ester linked to the 3'-end of 8-mer ODN d(TCCTGTCA) (DNA, backbone not given here; further chemistry not fully specified)”, the “drop in kcat relative to b-alanine ester 15a” value in the series with hairpin enzyme 3a (1.0 M NaCl) came out at 8.3 fold. Moreover, the Enhancement with hairpin enzyme 3a (1.0 M NaCl) is reported as 429; in series [1] ((kcat/KM)/kIm, 1.0 M NaCl) it was 974. Moreover, the “p-nitrophenol formed during the course of the reaction” value in series [1] (5 mM catalytic ODN and 5 mM triggering ODN) was “about 15 mM”. The “release more efficient with fully matched than mismatched template” value in series [1] (0.1 M NaCl, 20° C.) was 7.5 fold. For the same molecule, the “difference in rate, matched vs mismatched template” value in series [1] (1 M NaCl) is listed as 1.4 fold. In addition, the Vmax in series [1] (1 M NaCl, pH 7, 20° C.) came out at 0.09 mM/min. Also, the kcat in series [1] (1 M NaCl, pH 7, 20° C.) is 0.0003 s⁻¹. The “initial rate of p-nitrophenol release” value in series [1] (15-mer lacking an appended imidazole group, 1 M NaCl, pH 7, 20° C.) was found to be 0.0008 mM/min; in series [1] (absence of the 23-mer or Im-15-mer, 1 M NaCl, pH 7, 20° C.), 0.002 mM/min; in series [1] (all three components, 1 M NaCl, pH 7, 20° C.), 0.057 mM/min. Further, the “rate acceleration over hydrolysis catalyzed by free imidazole” value in series [1] ((kcat/KM)/kIm) came to 976 fold. In addition, the “initial rate of release of p-nitrophenol” value in series [1] (fully matched 23-mer, 0.1 M NaCl, 20° C.) turned out to be 0.028 mM/min; in series [1] (mismatched 23-mer (T at position 20 replaced with C), 0.1 M NaCl, 20° C.), 0.0037 mM/min.

In series [2] (imidazole buffer pH 7.0, 1.0 M NaCl), `CC(C)[C@H](C(=O)Oc1ccc([N+](=O)[O-])cc1)N1C(=O)C=CC1=O` [11a, N-maleoyl-D-valine p-nitrophenyl ester] had a kIm of 0.014 M⁻¹ s⁻¹.

In turn, `CC(=O)Oc1ccc([N+](=O)[O-])cc1` [p-nitrophenylacetate, reference compound] had a klm in series [2] (imidazole catalyzed rate constant, pH 7, 0.5 M NaCl) of 0.13 M⁻¹ s⁻¹.

As for N-maleoyl-b-alanine-coumarin ester [9c], in series [3], the “stability to hydrolysis by human serum, compared” value is listed as “more stable than the CBZ-glycine ester, but much less stable than the maleoyl-D-valine esters”.

For the molecule “d(GGAGCTTGCTCC): hairpin ODN of the literature (SEQ ID NO:18) (DNA, backbone not given here; hairpin)”, in series [4], the TM reported was 71 °C.
